≈ marks a conversion by molar mass, not a printed value. Where two headings read alike, the source gives them in different places. Each block holds one compound with its values, some of them ahead of it.
Experiments:
[1] = Cell growth IC50, screening of AOH1160 analogs (cell line not given); format: cell-based
Method: (§1) FIG. 29. IC50 data for select compounds. The indicated cell lines were seeded at 10^4 cells per well in a 96 well plate. After allowing to attach to the plate overnight, cells were treated with various concentrations of the indicated compounds in triplicates for 72 hrs. The cell growth was measured by an SRB assay. The cell abundances under each treatment condition relative to the baseline were averaged and graphed ±S.D. The baseline is defined as the median value of the cell abundances under the treatment by the two lowest compound concentrations. The IC50 was calculated by the Prism program.

[2] = tested on: MDA-MB-468; test: Cell growth IC50, screening of AOH1160 analogs; format: cell-based; settings: Homo sapiens, MDA-MB-468; read-out: IC50 values
Method: as §1

[3] = tested on: SK-N-FI; test: Cell growth IC50, screening of AOH1160 analogs; format: cell-based; settings: Homo sapiens
Method: as §1

[4] = tested on: SH-SY5Y; test: Cell growth IC50, screening of AOH1160 analogs; format: cell-based; settings: Homo sapiens
Method: as §1

[5] = target: T1, PCNA (Homo sapiens, UniProt P12004); test: Thermal denaturation (thermal shift) assay; format: binding; settings: 9 μM PCNA; 10 or 30 μM compound; dose dependent
T1 construct: made in house; host or cells: E. coli Rosetta 2 (DE3)
T1 sequence (P12004 whole entry): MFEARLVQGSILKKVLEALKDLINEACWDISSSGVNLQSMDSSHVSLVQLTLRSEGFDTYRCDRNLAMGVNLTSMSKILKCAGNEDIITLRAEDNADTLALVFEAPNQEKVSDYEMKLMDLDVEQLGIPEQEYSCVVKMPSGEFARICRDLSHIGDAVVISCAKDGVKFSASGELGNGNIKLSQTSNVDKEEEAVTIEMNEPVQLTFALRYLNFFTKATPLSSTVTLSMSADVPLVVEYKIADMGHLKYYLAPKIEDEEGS
Method: FIGS. 1A-1E. AOH1160 analog interactions with PCNA. FIG. 1A: Thermal shift assay: Normalized inverse derivative thermal denaturation plots of 9 μM apo-PCNA with DMSO control is depicted with a black dashed line and PCNA in the presence of 10 μM AOH1160LE is shown in light grey and 30 μM AOH1160LE in dark grey. ΔTm values are provided. FIG. 1B: As described in FIG. 1A, in the presence of 10 μM AOH1996 depicted in light grey and 30 μM AOH1996 depicted in dark grey. FIG. 1C: Four monomers (chains A-D) of PCNA are present in the asymmetric unit of the crystal. Chains A, B, and C form the homotrimer biological unit, while chain Dis orientated perpendicular to the plane of the ring, below the interface of chains B and C and it belongs to an adjacent ring. Inset: Three molecules of AOH1160LE bind in and adjacent to the PIP box cavity of each of the PCNA ring subunits. The omit map, gray mesh, is contoured to 1.56. Two PCNA monomer subunits from adjacent rings stack against each other, placing the PIP box and IDCLs of each subunit in opposing directions. FIG. 1D: The three AOH1160LE molecules are shown as stick figure representations. Two of the compounds, left and central, bind into the PIP box cavity at known PCNA-partner/compound interaction sites. […] The electrostatic surface maps are depicted with Poisson-Boltzmann electrostatic surface potentials shown in dark grey and light grey, corresponding to −10 to +10 kT/e respectively.
Targeting the PIP box and APIM binding domain of PCNA. AOH1160, a small molecule PCNA ligand, targets the cancer-distinct L126-Y133 region of PCNA (Malkas et al., 2006) and is selectively toxic to cancer cells (Gu et al., 2018). […]
Thermal denaturation assay for PCNA-AOH1996 interaction. […] Fluorescence intensity was measured within the excitation/emission ranges 470-505/540-700 nm.

[6] = Solubility in aqueous buffer with 10% DMSO; format: physicochemical; settings: pH 7.4, aqueous with cosolvent or surfactant or cyclodextrin, read-out: soluble at concentration
Method: AOH1160LE was soluble at a 4 mM concentration in aqueous buffer with 10% DMSO, which enabled co-crystallization studies on this analog. A PCNA:AOH1160LE co-crystal diffracted to 2.85 Å resolution at the synchrotron source, and phasing was provided by molecular replacement. Four PCNA subunits were present in the asymmetric unit, with three, chains A, B, C belonging to the homotrimeric ring structure, and the fourth, chain D (FIG. 1C) forms part of an adjacent ring in the unit cell that consists solely of D chains. Packing within the unit cell also places each monomer subunit of the PCNA ring against a subunit from another ring; these two stacked subunits interact via their PIP box binding pockets and […] IDCLs that are orientated in directly opposing directions (FIG. 1D). Clearly observed within the electron density maps are three molecules of AOH1160LE, which bind in and adjacent to the PIP box cavity of each of the PCNA ring subunits, and these compounds have further interactions with the PIP box pocket of the stacked PCNA subunit (FIG. 1D).
Expression, purification and crystallization of PCNA. Human PCNA in a pET22b-hPCNA vector was transformed into E. coli Rosetta 2 (DE3) cells. PCNA expression was induced by 0.4 mM IPTG, OD600=0.6, and cells were grown for 5 hrs at 37° C. […]

[7] = tested on: SK-MEL-5; test: Cell growth IC50, screening of AOH1160 analogs; format: cell-based; settings: Homo sapiens
Method: as §1

[8] = tested on: Hela; test: Cell growth IC50, screening of AOH1160 analogs; format: cell-based; settings: Homo sapiens, HeLa; read-out: IC50 values
Method: as §1

[9] = tested on: SK-MEL-28; test: Cell growth IC50, screening of AOH1160 analogs; format: cell-based; settings: Homo sapiens
Method: as §1

[10] = tested on: SK-N-DZ; test: Cell growth IC50, screening of AOH1160 analogs; format: cell-based; settings: Homo sapiens
Method: as §1

[11] = tested on: SK-N-AS; test: Cell growth IC50, screening of AOH1160 analogs; format: cell-based; settings: Homo sapiens, read-out: IC50 values
Method: as §1

[12] = tested on: SK-N-BE(2)c; test: Cell growth IC50, screening of AOH1160 analogs; format: cell-based; settings: Homo sapiens
Method: as §1

[13] = oral, 40 mg/kg, mice (Gu et al., 2018); cited from earlier work
[14] = tested on: OVCAR8; test: Cell growth IC50, screening of AOH1160 analogs; format: cell-based; settings: Homo sapiens, OVCAR-8; OVCAR8; read-out: IC50 values
Method: as §1

[15] = tested on: MDA-MB-231; test: Cell growth IC50, screening of AOH1160 analogs; format: cell-based; settings: Homo sapiens
Method: as §1

IC50 [2]: 4.9 µM | IC50 [3]: 3 µM | IC50 [4]: 4 µM
SMILES: C[C@H](NC(=O)c1cccc2ccccc12)C(=O)Nc1ccccc1Oc1ccccc1 [AOH1160LA, (S)—N-(1-oxo-1-((2-phenoxyphenyl)amino)propan-2-yl)-1-naphthamide]
IC50 ([1]; FIG. 25, read-out: IC50): ~3 µM

shift of protein melting curves (ΔTm) [5]: ≤ 0.5 °C | solubility [6]: 4 mM (≈ 1870 µg/mL)
SMILES: O=C(O)CC[C@H](NC(=O)c1cccc2ccccc12)C(=O)Nc1ccccc1Oc1ccccc1 [AOH1160LE]
IC50 ([1]; read-out: IC50 values): > 10 µM

IC50 [7]: 0.61 µM | IC50 [2]: 0.316 µM | IC50 [8]: 0.29 µM | IC50 [9]: 0.34 µM
SMILES: O=C(CNC(=O)c1cccc2ccccc12)Nc1ccccc1Sc1ccccc1 [AOH1160S, N-(2-oxo-2-((2-(phenylthio)phenyl)amino)ethyl)-1-naphthamide]

IC50 [10]: 0.237 µM | IC50 [11]: 0.107 µM | IC50 [12]: 0.325 µM
SMILES: O=C(CNC(=O)c1cccc2ccccc12)Nc1ccccc1Oc1ccccc1 [AOH1160]
half-life [13]: 3.4 h

IC50 [14]: 0.41 µM | IC50 [15]: 0.22 µM
SMILES: O=C(CNC(=O)c1cccc2ccccc12)Nc1ccccc1Sc1ccccc1F [AOH1996S-2F, N-(2-((2-((2-fluorophenyl)thio)phenyl)amino)-2-oxoethyl)-1-naphthamide]

Reference: patent US20250171404A1, “PCNA INHIBITORS AND USES THEREOF” (CITY OF HOPE, priority 2022, published 2025)
